Data reported in the kinase profiling compilation of Christmann-Franck et al. (2016).

Experiments:
Assay in all cases: radiometric filter-binding kinase assay
[1] = biological target: FGFR1 (human) (UniProt P11362)
[2] = biological target: MAP2K1 (human) (UniProt Q02750)
[3] = biological target: INSR (human) (UniProt P06213)
[4] = biological target: DYRK3 (human) (UniProt O43781)
[5] = biological target: PKN2 (human) (UniProt Q16513)
[6] = system: LCK (mouse); conditions: accession and sequence are those of the human protein
[7] = biological target: MYLK (human) (UniProt Q15746)
MYLK (human), sequence (Q15746 whole entry, looked up): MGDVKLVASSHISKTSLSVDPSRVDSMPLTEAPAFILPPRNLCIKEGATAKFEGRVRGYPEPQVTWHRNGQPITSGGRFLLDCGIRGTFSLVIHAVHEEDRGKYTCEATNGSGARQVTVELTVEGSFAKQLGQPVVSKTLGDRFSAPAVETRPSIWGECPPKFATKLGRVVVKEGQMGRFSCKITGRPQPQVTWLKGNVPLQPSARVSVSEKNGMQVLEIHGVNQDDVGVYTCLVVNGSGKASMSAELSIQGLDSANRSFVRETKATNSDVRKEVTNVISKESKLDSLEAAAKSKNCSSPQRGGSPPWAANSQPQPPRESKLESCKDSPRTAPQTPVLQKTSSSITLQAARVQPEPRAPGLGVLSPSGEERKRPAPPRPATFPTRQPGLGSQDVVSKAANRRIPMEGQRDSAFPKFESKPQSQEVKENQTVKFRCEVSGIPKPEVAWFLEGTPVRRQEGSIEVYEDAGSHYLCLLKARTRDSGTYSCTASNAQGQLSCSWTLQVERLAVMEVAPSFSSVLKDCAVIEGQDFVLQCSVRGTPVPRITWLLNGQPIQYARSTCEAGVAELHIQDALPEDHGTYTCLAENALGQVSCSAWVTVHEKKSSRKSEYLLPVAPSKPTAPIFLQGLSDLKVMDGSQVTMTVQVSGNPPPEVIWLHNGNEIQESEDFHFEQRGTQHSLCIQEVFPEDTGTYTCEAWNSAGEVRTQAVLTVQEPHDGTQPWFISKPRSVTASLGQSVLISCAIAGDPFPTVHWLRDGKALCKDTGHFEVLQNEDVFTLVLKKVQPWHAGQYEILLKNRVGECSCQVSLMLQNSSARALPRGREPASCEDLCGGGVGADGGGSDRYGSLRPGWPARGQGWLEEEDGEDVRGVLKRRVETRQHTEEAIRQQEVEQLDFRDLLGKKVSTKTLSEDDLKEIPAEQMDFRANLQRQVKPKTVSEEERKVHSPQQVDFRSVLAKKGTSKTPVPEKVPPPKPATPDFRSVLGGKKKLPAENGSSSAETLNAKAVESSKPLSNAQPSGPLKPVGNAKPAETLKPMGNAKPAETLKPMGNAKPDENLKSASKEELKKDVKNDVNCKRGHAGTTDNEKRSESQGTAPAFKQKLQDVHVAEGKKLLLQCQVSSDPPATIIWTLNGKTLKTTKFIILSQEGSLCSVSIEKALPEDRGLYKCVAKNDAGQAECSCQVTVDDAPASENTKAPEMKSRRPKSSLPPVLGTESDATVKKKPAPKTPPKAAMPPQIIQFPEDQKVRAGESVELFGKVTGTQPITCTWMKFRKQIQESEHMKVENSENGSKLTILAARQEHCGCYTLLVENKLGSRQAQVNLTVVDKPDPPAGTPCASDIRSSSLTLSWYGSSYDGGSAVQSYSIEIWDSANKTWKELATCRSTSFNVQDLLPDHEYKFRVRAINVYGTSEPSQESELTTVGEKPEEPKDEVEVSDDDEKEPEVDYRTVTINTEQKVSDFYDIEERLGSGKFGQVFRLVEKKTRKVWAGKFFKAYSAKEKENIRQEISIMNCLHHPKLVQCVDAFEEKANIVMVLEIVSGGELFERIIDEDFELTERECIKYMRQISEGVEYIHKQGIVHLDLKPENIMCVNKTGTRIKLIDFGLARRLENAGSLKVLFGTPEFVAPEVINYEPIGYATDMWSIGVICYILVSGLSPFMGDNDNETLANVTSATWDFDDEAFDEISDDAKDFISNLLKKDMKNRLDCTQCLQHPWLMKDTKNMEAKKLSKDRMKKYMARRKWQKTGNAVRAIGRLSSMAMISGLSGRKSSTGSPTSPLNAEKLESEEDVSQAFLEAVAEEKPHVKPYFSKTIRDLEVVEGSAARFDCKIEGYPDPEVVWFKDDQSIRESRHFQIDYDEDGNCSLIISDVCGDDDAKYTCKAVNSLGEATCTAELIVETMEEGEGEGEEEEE

[8] = biological target: INSRR (human) (UniProt P14616)
[9] = biological target: PHKG1 (human) (UniProt Q16816)
[10] = system: RPS6KB1 (human), P23443 [T412E]
[11] = biological target: NEK6 (human) (UniProt Q9HC98)
[12] = biological target: SYK (human) (UniProt P43405)
[13] = biological target: EPHA2 (human) (UniProt P29317)
[14] = biological target: GSK3B (human) (UniProt P49841)
[15] = biological target: PIM3 (human) (UniProt Q86V86)
[16] = biological target: MAPK13 (human) (UniProt O15264)
[17] = system: ROCK2 (rat); conditions: accession and sequence are those of the human protein
[18] = system: AKT2 (human), P31751 [S474D]
[19] = biological target: NEK2 (human) (UniProt P51955)
[20] = biological target: PIM2 (human) (UniProt Q9P1W9)
PIM2 (human), sequence (Q9P1W9 whole entry, looked up): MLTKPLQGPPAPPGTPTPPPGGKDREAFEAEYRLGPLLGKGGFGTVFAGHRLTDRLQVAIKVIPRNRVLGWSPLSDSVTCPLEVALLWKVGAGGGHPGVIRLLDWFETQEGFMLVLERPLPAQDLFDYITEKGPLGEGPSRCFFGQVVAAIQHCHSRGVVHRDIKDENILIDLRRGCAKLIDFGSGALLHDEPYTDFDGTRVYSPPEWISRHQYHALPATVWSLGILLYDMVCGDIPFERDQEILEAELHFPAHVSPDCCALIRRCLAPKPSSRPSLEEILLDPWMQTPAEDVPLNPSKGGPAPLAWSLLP

[21] = biological target: MAPK11 (human) (UniProt Q15759)
[22] = biological target: TBK1 (human) (UniProt Q9UHD2)
[23] = biological target: SRPK1 (human) (UniProt Q96SB4)
[24] = biological target: CSNK2A1 (human) (UniProt P68400)
[25] = biological target: MKNK1 (human) (UniProt Q9BUB5)
[26] = system: AKT1 (human), P31749 [S473D]

INSR (human), sequence (P06213 whole entry, looked up): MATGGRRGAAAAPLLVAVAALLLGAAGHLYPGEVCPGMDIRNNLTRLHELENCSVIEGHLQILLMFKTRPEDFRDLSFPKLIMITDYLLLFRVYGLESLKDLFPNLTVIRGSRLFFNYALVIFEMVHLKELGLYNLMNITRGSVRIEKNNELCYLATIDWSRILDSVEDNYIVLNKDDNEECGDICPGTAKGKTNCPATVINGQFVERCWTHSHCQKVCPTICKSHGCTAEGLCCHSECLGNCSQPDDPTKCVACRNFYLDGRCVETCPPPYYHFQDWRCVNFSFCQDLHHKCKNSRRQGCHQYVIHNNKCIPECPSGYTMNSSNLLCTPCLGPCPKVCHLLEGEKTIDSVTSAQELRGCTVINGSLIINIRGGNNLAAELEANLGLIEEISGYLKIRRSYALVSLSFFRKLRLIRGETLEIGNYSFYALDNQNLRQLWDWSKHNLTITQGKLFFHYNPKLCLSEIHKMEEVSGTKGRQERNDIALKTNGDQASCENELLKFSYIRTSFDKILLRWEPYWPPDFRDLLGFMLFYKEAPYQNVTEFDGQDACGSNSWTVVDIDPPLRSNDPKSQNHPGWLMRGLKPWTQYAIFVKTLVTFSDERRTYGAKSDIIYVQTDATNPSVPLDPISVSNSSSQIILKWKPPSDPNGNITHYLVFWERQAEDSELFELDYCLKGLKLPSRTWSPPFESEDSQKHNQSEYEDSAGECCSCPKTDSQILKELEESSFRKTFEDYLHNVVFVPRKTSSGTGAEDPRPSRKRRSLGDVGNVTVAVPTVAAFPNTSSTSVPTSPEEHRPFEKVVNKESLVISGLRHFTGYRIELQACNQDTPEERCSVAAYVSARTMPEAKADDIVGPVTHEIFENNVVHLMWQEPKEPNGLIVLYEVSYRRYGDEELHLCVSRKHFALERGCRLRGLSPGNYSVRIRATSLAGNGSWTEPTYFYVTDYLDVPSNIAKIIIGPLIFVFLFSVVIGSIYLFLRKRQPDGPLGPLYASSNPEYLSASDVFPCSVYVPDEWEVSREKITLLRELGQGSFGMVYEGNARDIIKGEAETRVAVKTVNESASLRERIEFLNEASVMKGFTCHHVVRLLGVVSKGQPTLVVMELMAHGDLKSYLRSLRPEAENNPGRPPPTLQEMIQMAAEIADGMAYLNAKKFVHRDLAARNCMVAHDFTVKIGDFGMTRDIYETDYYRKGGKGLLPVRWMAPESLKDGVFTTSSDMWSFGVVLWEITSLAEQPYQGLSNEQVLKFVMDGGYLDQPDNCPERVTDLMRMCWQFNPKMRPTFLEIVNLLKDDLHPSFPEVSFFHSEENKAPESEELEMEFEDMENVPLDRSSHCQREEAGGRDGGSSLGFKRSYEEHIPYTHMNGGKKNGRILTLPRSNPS
PKN2 (human), sequence (Q16513 whole entry, looked up): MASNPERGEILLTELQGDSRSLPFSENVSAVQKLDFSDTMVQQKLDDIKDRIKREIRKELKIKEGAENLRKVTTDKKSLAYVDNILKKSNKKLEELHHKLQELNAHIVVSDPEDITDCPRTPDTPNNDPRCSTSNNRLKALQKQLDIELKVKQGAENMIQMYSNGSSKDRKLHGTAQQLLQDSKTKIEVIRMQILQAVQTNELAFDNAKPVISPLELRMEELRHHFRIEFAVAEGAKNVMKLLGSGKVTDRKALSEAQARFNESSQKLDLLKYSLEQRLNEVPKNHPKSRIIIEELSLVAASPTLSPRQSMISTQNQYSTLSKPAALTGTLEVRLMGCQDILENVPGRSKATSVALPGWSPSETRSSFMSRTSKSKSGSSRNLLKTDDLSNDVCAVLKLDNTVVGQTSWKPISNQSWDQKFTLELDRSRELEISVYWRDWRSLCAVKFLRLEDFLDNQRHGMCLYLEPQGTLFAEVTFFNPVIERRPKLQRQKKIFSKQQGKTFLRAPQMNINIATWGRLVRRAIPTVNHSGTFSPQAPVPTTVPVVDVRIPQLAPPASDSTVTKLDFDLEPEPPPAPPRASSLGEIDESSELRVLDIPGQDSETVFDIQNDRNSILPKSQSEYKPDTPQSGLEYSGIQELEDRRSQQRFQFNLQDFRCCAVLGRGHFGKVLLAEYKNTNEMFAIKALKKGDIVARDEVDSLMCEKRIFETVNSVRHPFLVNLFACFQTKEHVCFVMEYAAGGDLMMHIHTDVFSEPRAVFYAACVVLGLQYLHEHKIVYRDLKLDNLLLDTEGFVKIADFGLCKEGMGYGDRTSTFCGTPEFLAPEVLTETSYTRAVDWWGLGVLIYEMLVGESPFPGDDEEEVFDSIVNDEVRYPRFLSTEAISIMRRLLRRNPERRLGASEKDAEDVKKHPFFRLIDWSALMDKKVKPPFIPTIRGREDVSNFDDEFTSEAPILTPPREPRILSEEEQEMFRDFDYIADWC
MAP2K1 (human), sequence (Q02750 whole entry, looked up): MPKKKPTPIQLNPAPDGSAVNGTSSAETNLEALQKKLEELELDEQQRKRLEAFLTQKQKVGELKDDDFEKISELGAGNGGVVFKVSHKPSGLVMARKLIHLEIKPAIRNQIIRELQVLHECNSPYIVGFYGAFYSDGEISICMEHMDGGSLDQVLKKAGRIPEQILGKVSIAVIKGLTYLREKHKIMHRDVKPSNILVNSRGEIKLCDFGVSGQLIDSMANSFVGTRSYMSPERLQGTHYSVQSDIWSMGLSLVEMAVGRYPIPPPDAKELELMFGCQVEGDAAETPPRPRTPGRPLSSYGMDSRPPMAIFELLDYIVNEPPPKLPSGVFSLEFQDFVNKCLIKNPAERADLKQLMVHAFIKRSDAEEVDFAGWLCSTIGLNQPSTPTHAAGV

**Q.** Which results are given for NC(=O)Nc1ccc2c(c1)/C(=C/c1cc(-c3cccnc3)c[nH]1)C(=O)N2?
**A.** residual activity ([1]; compound 0.1 µM): 17%; residual activity ([1]; compound 1.0 µM): 2%; residual activity ([1]; compound 10.0 µM): 1%; residual activity ([2]; compound 0.1 µM): 8%; residual activity ([2]; compound 1.0 µM): 1%; residual activity ([2]; compound 10.0 µM): 2%; residual activity ([3]; compound 0.1 µM): 112%; residual activity ([3]; compound 1.0 µM): 101%; residual activity ([3]; compound 10.0 µM): 26%; residual activity ([4]; compound 0.1 µM): 19%; residual activity ([4]; compound 1.0 µM): 4%; residual activity ([4]; compound 10.0 µM): 1%; residual activity ([5]; compound 0.1 µM): 25%; residual activity ([5]; compound 1.0 µM): 5%; residual activity ([5]; compound 10.0 µM): 6%; residual activity ([6]; compound 0.1 µM): 44%; residual activity ([6]; compound 1.0 µM): 10%; residual activity ([6]; compound 10.0 µM): 3%; residual activity ([7]; compound 0.1 µM): 54%; residual activity ([7]; compound 1.0 µM): 11%; residual activity ([7]; compound 10.0 µM): 1%; residual activity ([8]; compound 0.1 µM): 35%; residual activity ([8]; compound 1.0 µM): 16%; residual activity ([8]; compound 10.0 µM): 5%; residual activity ([9]; compound 0.1 µM): 13%; residual activity ([9]; compound 1.0 µM): 1%; residual activity ([9]; compound 10.0 µM): 0%; residual activity ([10]; compound 0.1 µM): 76%; residual activity ([10]; compound 1.0 µM): 32%; residual activity ([10]; compound 10.0 µM): 12%; residual activity ([11]; compound 0.1 µM): 92%; residual activity ([11]; compound 1.0 µM): 76%; residual activity ([11]; compound 10.0 µM): 38%; residual activity ([12]; compound 1.0 µM): 40%; residual activity ([12]; compound 10.0 µM): 7%; residual activity ([13]; compound 0.1 µM): 93%; residual activity ([13]; compound 1.0 µM): 54%; residual activity ([13]; compound 10.0 µM): 20%; residual activity ([14]; compound 0.1 µM): 11%; residual activity ([14]; compound 1.0 µM): 7%; residual activity ([14]; compound 10.0 µM): 3%; residual activity ([15]; compound 0.1 µM): 30%; residual activity ([15]; compound 1.0 µM): 9%; residual activity ([15]; compound 10.0 µM): 7%; residual activity ([16]; compound 0.1 µM): 85%; residual activity ([16]; compound 1.0 µM): 62%; residual activity ([16]; compound 10.0 µM): 22%; residual activity ([17]; compound 1.0 µM): 37%; residual activity ([17]; compound 10.0 µM): 7%; residual activity ([18]; compound 0.1 µM): 88%; residual activity ([18]; compound 1.0 µM): 77%; residual activity ([18]; compound 10.0 µM): 36%; residual activity ([19]; compound 0.1 µM): 100%; residual activity ([19]; compound 1.0 µM): 75%; residual activity ([19]; compound 10.0 µM): 28%; residual activity ([20]; compound 0.1 µM): 76%; residual activity ([20]; compound 1.0 µM): 34%; residual activity ([20]; compound 10.0 µM): 8%; residual activity ([21]; compound 0.1 µM): 103%; residual activity ([21]; compound 1.0 µM): 80%; residual activity ([21]; compound 10.0 µM): 49%; residual activity ([22]; compound 0.1 µM): 27%; residual activity ([22]; compound 1.0 µM): 7%; residual activity ([22]; compound 10.0 µM): 11%; residual activity ([23]; compound 0.1 µM): 90%; residual activity ([23]; compound 1.0 µM): 75%; residual activity ([23]; compound 10.0 µM): 36%; residual activity ([24]; compound 0.1 µM): 93%; residual activity ([24]; compound 1.0 µM): 65%; residual activity ([24]; compound 10.0 µM): 21%; residual activity ([25]; compound 0.1 µM): 80%; residual activity ([25]; compound 1.0 µM): 54%; residual activity ([25]; compound 10.0 µM): 30%; residual activity ([26]; compound 0.1 µM): 85%; residual activity ([26]; compound 1.0 µM): 69%; residual activity ([26]; compound 10.0 µM): 62%
